In patent publication US20250151812A1, “METHOD AND INHALER FOR PROVIDING TWO OR MORE […] INHALATION” (Syqe Medical Ltd., priority 2018, published 2025):
Values joined by “and” are separate entries in the source; they are usually repeats but may differ in a detail not shown here. Equal entries are not always repeated.

Columns and labels:
Assay type in all cases: physicochemical
[1] = Bediol strain Cannabis, two heating durations; aerosol analyzed using UPLC (Table 3, FIG. 17B); conditions: 180 C., 1.1 L/min; for mg API: in aerosol, 13.5 mg Bediol strain Cannabis; for total (acid + neutral form): sum for the acid and its neutral form, 13.5 mg Bediol
Procedure: In the following related experiment performed by the inventors, samples having 13.5 mg of Bediol strain Cannabis (Bedrocan, Holland) were tested using two operation profiles and compared to a raw material. The samples were heated to a temperature of 180° C. under an airflow rate of 1.1 liter/minute. In the first operation profile, the heating duration was 1.5 seconds; in the second operation profile, the heating duration was 2.5 seconds. Aerosol was collected, extracted and analyzed using UPLC. As can be observed from this example, under certain conditions, lengthening the heating duration increased the CBD/total THC ratio (from about 0.79 in the first operation profile to about 0.96 in the second operation profile). As can also be observed from this example, under certain conditions, lengthening the heating duration released higher amounts of all active substances tested (CBDA, CBD, THCA, Δ9-THC). (API-active pharmaceutical ingredient).

[2] = FIG. 6: CBDA/CBD and THCA/Δ9-THC ratios at two operation profiles; aerosol analyzed using UPLC; conditions: 13.5 mg cannabis; 180° C., airflow 1 liter/minute; 1.5 seconds versus 2.5 second
Procedure: Reference is now made to FIG. 6, which is a bar chart of the ratios between CBDA/CBD and THCA/Δ9-THC received at various operation profiles according to some embodiments of the invention. Samples having 13.5 mg of a defined type of cannabis were tested at two operation profiles. The samples were heated to a temperature of 180° C. under an airflow of 1 liter/minute) for 1.5 seconds and 2.5 second. Aerosol was collected, extracted and analyzed using UPLC.

[3] = Effect of airflow rate on decarboxylation of THCA; aerosol from heated Bedrocan cannabis samples analyzed in UPLC; conditions: 13.5 mg Bedrocan sample, 185° C., 1620 ms
Procedure: In the following experiment performed by the inventors, the effect of airflow rate on decarboxylation of THCA was tested. 14 samples (7 samples tested in each of the profiles) of 13.5 mg each of Bedrocan strain (Bedrocan, Holland) were heated for 1620 ms to a temperature of 185° C. In a first operation profile (upper table), the rate of flow through the sample was set to 1.1 L/min; in a second operation profile (lower table), the rate of airflow through the sample was set to 0.85 L/min. Aerosol was collected and extracted and analyzed in UPLC (Ultra performance liquid chromatography) for the presence of THCA and Δ9-THC. As can be observed, in this example, under certain conditions, increasing the rate of flow through the sample increased the percentage of THCA in the aerosol. (As shown below, the percentage of THCA was calculated as the amount of THCA divided by the total amount of both THCA and Δ9-THC.) The graph of FIG. 17A presents the results shown in the table below.

[4] = Various operation profiles (heating temperature, airflow rate, heating duration); aerosol analyzed in UPLC for THCA and Δ9-THC
Procedure: In another experiment performed by the inventors, various operation profiles were tested. In lines 1-9 of the table below, a change in the heating temperature was tested, while the rate of airflow and the heating duration remained constant. Aerosol was collected and extracted and analyzed in UPLC for the presence of THCA and Δ9-THC. A graph presenting the results obtained for the various heating temperatures is shown in FIG. 7 and further discussed below; in lines 10-14 of the table, a change in the rate of airflow was tested, while the temperature and the heating duration remained constant; in lines 17-19 of the table, a change in the heating duration was tested, while the temperature and rate of airflow remained constant. As can be observed, in this example, under certain conditions, increasing the heating temperature (while maintaining other parameters (flow rate, duration of heating) constant) reduced the percentage of THCA released; lengthening the heating duration (while maintaining other parameters constant) reduced the percentage of THCA released. (As shown below, the percentage of THCA was calculated as the amount of THCA divided by the total amount of both THCA and Δ9-THC.)
Reference is now made to FIG. 7 which is a graph showing the effect of the temperature on the relative amount of THCA vaporized. The experiment procedure and the results are also discussed above and presented in Table 2 Samples having 13.5 mg of a defined type of cannabis were tested by applying air at 1.1 liter/minute for 1.5 seconds at various temperatures from 160°° C. to 200° C. The relative amount of THCA were measured against the total amounts of Δ9-THC+THCA. […] Accordingly, by selecting the temperature and/or the time-temperature profile, the amount of THCA provided during inhalation may be controlled (e.g., selected by the user).

| Structure (SMILES) | mg API ([1]; heating duration 1500 ms) [mg] | mg API ([1]; heating duration 2500 ms) [mg] | total (acid + neutral form) ([1]; heating duration 1500 ms) | total (acid + neutral form) ([1]; heating duration 2500 ms) | amount of acids left after vaporization, by heating duration [2] | Δ9-THC ([3]; flow rate 0.85 L/min) | Δ9-THC ([3]; flow rate 1.1 L/min) | Δ9-THC ([4]; 13.5 mg cannabis, 1.1 L/min, 1500 ms, 160° C.) | Δ9-THC ([4]; 13.5 mg cannabis, 1.1 L/min, 1500 ms, 175° C.) | Δ9-THC ([4]; 13.5 mg cannabis, 1.1 L/min, 1500 ms, 200° C.) | Δ9-THC ([4]; 175 C., 1500 ms, flow 1.2 L/min) | Δ9-THC ([4]; 175 C., 1500 ms, flow 1.3 L/min) | Δ9-THC ([4]; 185° C., 1.1 L/min, heating 600 ms) [mg] | Δ9-THC ([4]; 185° C., 1.1 L/min, heating 800 ms) [mg] | Δ9-THC ([4]; 185° C., 1.1 L/min, heating 1000 ms) [mg] |
| --- | --- | --- | --- | --- | --- | --- | --- | --- | --- | --- | --- | --- | --- | --- | --- |
| C=C(C)[C@@H]1CCC(C)=C[C@H]1c1c(O)cc(CCCCC)c(C(=O)O)c1O [CBDA, cannabidiolic acid] | 0.125 | 0.188 | 0.311 | 0.642 | the longer the operation profile the less amount of acids |  |  |  |  |  |  |  |  |  |  |
| C=C(C)[C@@H]1CCC(C)=C[C@H]1c1c(O)cc(CCCCC)cc1O [CBD, Cannabidiol, reference compound] | 0.201 | 0.477 |  |  |  |  |  |  |  |  |  |  |  |  |  |
| CCCCCc1cc(O)c2c(c1)OC(C)(C)[C@@H]1CCC(C)=C[C@@H]21 [Δ9-THC, Δ9-tetrahydrocannabinol, reference compound] | 0.254 | 0.498 |  |  |  | 0.521 mg and 0.559 mg and 0.529 mg and 0.486 mg and 0.434 mg and 0.357 mg and 0.365 mg | 0.462 mg and 0.452 mg and 0.445 mg and 0.484 mg and 0.527 mg and 0.431 mg and 0.587 mg | 0.220 mg and 0.201 mg and 0.208 mg | 0.475 mg and 0.461 mg and 0.478 mg | 0.972 mg and 0.831 mg and 0.790 mg | 0.467 mg and 0.423 mg | 0.459 mg and 0.468 mg and 0.440 mg | 0.093 | 0.315 | 0.620 |
